Assays:
dorsal skin [1] = assay: Gene ontology (GO), GO enrichment and tissue-specific expression analysis of transcriptome, Experimental Example 7; assay type: in vivo, mouse; conditions: 20th day
Experimental: Gene ontology (GO) analysis and GO enrichment analysis were performed based on the results of the transcriptome analysis in Experimental Example 6.
Subsequently, term enrichment analysis of the genes with expression increased specifically with respect to the skin tissue was performed. Using tissue-specific expression analysis (TSEA), genes related to the skin tissue were filtered, and functions that were specifically enriched in the maslinic acid treatment group and the tieghemelin treatment group and were not enriched in the minoxidil treatment group were selected.

C3H male mouse = assay: Hair growth promoting effect in vivo, application to depilated dorsal skin, Experimental Example 5; conditions: 150 μL of 1% applied to dorsal skin every day for 20 days
Experimental: The oleanane-type triterpenoid was applied to the dorsal skin of a mouse and the hair growth promoting effect was examined. Maslinic acid was used as the oleanane-type triterpenoid. In addition, for comparison, a group in which minoxidil was used and a control group in which only a solvent was applied were prepared.
FIG. 12 is a schematic view showing an experimental schedule. After acclimatization of a C3H male mouse, the dorsal skin was depilated with a shaver and a depilatory cream. Thereafter, 150 μL of 1% minoxidil (n=8), 1% maslinic acid (n=6), or a solvent (n=8) was applied to the mouse in each group every day for 20 days, and the mouse was observed over time.
It is known that the hair cycle of a mouse has three stages of an anagen, a catagen, and a telogen. During the anagen (the 1st day to the 16th day), the hair follicle grows into the deep subcutaneous part. In the catagen (the 17th day to the 19th day), the hair follicle stops growing and regresses to the upper subcutaneous part. In the telogen (the 20th day to the 29th day), the hair shaft is in a state where it can be lost at any time. It is known that the color of the dorsal skin of a mouse changes to pink, gray, and black due to the hair cycle. FIG. 13 is a view showing a change in the color of the dorsal skin of a mouse due to the hair cycle.

HFDPCs = assay: Proliferation of HFDPCs (MTT), Experimental Example 1; assay type: cell-based, human; conditions: 48 hours, vs untreated cells
Excerpt: The activation effect by a glycoside of an oleanane-type triterpenoid was examined using dermal papilla cells of human hair follicles (HFDPCs) which are mesenchymal cells separated from the papilla of the scalp hair follicle of a normal human. As the glycoside of the oleanane-type triterpenoid (which may hereinafter be referred to as “saponin”), arganine D, arganine E, and butyroside D were used. A high proliferation rate of the HFDPCs is correlated with the acceleration of the hair growth cycle.
First, HFDPCs were seeded in a 96-well plate at […] and incubated at 37° C. in a humidified atmosphere of 5% CO2. As a culture medium, a culture medium for hair papilla cell growth to which growth factors (a bovine fetal serum, an insulin, a transferrin, a triiodothyronine, a bovine pituitary extract, or a cyproterone solution) had been added was used.
After 24 hours, the culture medium was exchanged with a culture medium containing each of various concentrations of each saponin, and the cells were incubated for 48 hours.
Subsequently, the cell proliferation was measured using 3-(4,5-dimethyl-thiazol-2-yl)-2,5-diphenyltetrazolium bromide (MTT). Specifically, an MTT reagent (5 mg/mL) was added to the cells and incubated for 8 hours, then 10% sodium dodecyl sulfate (SDS) was added thereto, and the cells were incubated overnight. Thereafter, the absorbance at 570 nm was measured using a microplate reader, and the cell proliferation was quantified as the proportion (%) of the absorbance to an absorbance of the untreated cells. In addition, the survival rate of cells was also measured by a trypan blue exclusion method.

dorsal skin [2] = assay: Transcriptome analysis and extended network analysis of dorsal skin, Experimental Examples 6 and 8; assay type: in vivo, mouse; conditions: 20th day, 1% applied daily; maslinic acid group vs tieghemelin group
Experimental: A mouse in each group of Experimental Example 5 and a mouse in the group which had been subjected to the same treatment as in Experimental Example 5 using 1% tieghemelin (n=6) were euthanized on the 20th day, and the dorsal skin was collected and subjected to transcriptome analysis.
(§1) Extended network analysis was performed based on the results of the transcriptome analysis in Experimental Example 6. FIGS. 20 to 22 are views showing the results of the extended network analysis. FIG. 20 is an analysis result obtained from a dataset of the minoxidil treatment group, FIG. 21 is an analysis result obtained from a dataset of the maslinic acid treatment group, and FIG. 22 is an analysis result obtained from a dataset of the tieghemelin treatment group. In FIGS. 20 to 22, a white circle indicates a gene with increased expression, and a black circle indicates a gene with decreased expression. In addition, the size of the circle indicates the magnitude of a change in expression level.

hair cycle-related genes = assay: Fluctuation in expression of hair cycle-related genes from transcriptome, Experimental Example 9; assay type: in vivo, mouse; conditions: dorsal skin, 20th day
Excerpt: A fluctuation in expression of the hair cycle-related genes was examined, based on the results of the transcriptome analysis in Experimental Example 6.

dorsal skin [3] = assay: Fluorescence immunostaining of dorsal skin tissue sections, Experimental Example 10; assay type: in vivo, mouse; conditions: 20th day
Excerpt: A mouse in each group of Experimental Examples 5 and 6 was euthanized on the 20th day, the dorsal skin was collected, and the tissue section was subjected to immunostaining.
FIG. 23 is a photomicrograph showing the results of detecting the expressions of β-catenin and K14 by fluorescence immunostaining. In addition, the nuclei were stained with 4′,6-diamidino-2-phenylindole (DAPI). The β-catenin is a hair growth promoting marker and is also a marker for the start of the anagen. K14 is an epidermal marker and is known to increase with the differentiation of hair follicle stem cells.
FIG. 24 is a photomicrograph showing the results of detecting the expression of VEGF by fluorescence immunostaining. In addition, the nuclei were stained with DAPI. VEGF is known to improve the vascularization of hair follicles, increase the size of hair follicles and hair, and promote the growth and circulation of hair follicles.

Iqcb1 = Iqcb1 expression from transcriptome / extended network analysis, Experimental Example 8; assay type: in vivo, mouse; conditions: dorsal skin, 20th day, 1% applied daily
Experimental: as §1
DDX58 is an innate immune receptor that senses viral nucleic acids in the cytoplasm and activates a downstream signal transduction cascade leading to the production of type I interferons or inflammatory cytokines. IQCB1 is a protein known to be involved in formation of cilium.

HFDPC [4] = assay: Quantitative real-time RT-PCR of hair growth markers in HFDPC, Experimental Example 3; assay type: cell-based, human; conditions: vs 0.1 M minoxidil (so in the source), 48 hours
HFDPC [5] = assay: as above; assay type: cell-based, human; conditions: 48 hours; for expression level of the FGF1 gene in the HFDPC / expression level of the ALPL gene in the HFDPC / expression level of the CTNNB1 gene in HFDPC: vs control
Experimental: The HFDPC was treated with butyroside D, and then the expression of the hair growth marker was confirmed by quantitative real-time RT-PCR.
As the hair growth markers, a CTNNB1 gene (β-catenin), an ALPL gene (alkaline phosphatase), and an FGF1 gene (fiblobrast growth factor 1) were examined. It is known that the β-catenin induces anagen of the hair cycle and promotes the proliferation of keratinocytes. ALPL is a representative hair growth marker in the hair papilla cells. FGF1 is a marker for morphogenesis of hair follicles.
HFDPCs were seeded in a 6-well plate at 5×10^4 cells/well and incubated at 37° C. for 24 hours. Subsequently, the culture medium was removed and exchanged with a culture medium including 0 (Control), 0.5, 5, and 10 nM of butyroside D. In addition, for comparison, cells treated with a culture medium including minoxidil (0.1 μM), which is an existing pharmaceutical product, were also prepared.
Subsequently, after 48 hours, the cells were washed with cold PBS and a total RNA was extracted using an ISOGEN kit (Nippon Gene Co., Ltd.). Next, the total RNA was quantified using a NanoDrop 2000 spectrophotometer (Thermo Fisher Scientific) and quantitative real-time RT-PCR analysis was performed.
First, using a SuperScript III reverse transcription kit (Thermo Fisher Scientific), a cDNA was synthesized from the extracted total RNA by a cycling protocol of 95° C. for 10 minutes, 40 cycles of 95° C. for 15 seconds, and 60° C. for 1 minute.
Subsequently, a real-time PCR was performed using a 7500 Fast Real-Time PCR system (Software 1.3.1, Thermo Fisher Scientific) and TaqMan probes specific for CTNNB1, ALPL, and FGF1. GAPDH was used as an endogenous control and the relative mRNA amount was calculated by applying a 2^−ΔΔCt method by comparison with GAPDH.

[6] = fluorescence immunostaining, dorsal skin

Compound: Nc1cc(N2CCCCC2)nc(N)[n+]1[O-] [minoxidil, reference compound]
- number of genes with decreased expression common among the minoxidil, maslinic acid and tieghemelin treatment groups (dorsal skin [1]): 316
- number of genes with increased expression common among the minoxidil, maslinic acid and tieghemelin treatment groups (dorsal skin [1]): 342
- influence on the body weight of the mouse (C3H male mouse): No influence on the body weight

Compound: C[C@@H]1O[C@@H](O[C@H]2[C@H](OC(=O)[C@]34CCC(C)(C)C[C@H]3C3=CC[C@@H]5[C@@]6(C)C[C@H](O)[C@H](O[C@@H]7O[C@H](CO[C@@H]8O[C@H](CO)[C@@H](O)[C@H](O)[C@H]8O)[C@@H](O)[C@H](O)[C@H]7O)[C@@](C)(CO)[C@@H]6[C@H](O)C[C@@]5(C)[C@]3(C)CC4)OC[C@@H](O)[C@@H]2O)[C@H](O)[C@H](O)[C@H]1O[C@@H]1OC[C@@H](O)[C@H](O[C@@H]2OC[C@](O)(CO)[C@H]2O)[C@H]1O [arganine E]
- proliferation of HFDPCs (HFDPCs; 2 μM): significantly promotes the proliferation

Compound: C[C@@H]1O[C@@H](O[C@@H]2[C@@H](O)[C@H](O[C@@H]3[C@@H](O)[C@@H](O)[C@H](O[C@H]4[C@H](OC(=O)[C@]56CCC(C)(C)C[C@H]5C5=CC[C@@H]7[C@@]8(C)C[C@H](O)[C@H](O[C@@H]9O[C@H](C(=O)O)[C@@H](O)[C@H](O)[C@H]9O)[C@@](C)(CO)[C@@H]8[C@H](O)C[C@@]7(C)[C@]5(C)C[C@H]6O)OC[C@H](O)[C@@H]4O)O[C@H]3C)OC[C@H]2O)[C@H](O)[C@H](O)[C@H]1O [tieghemelin]
- pattern of differentially expressed genes in the dorsal skins (dorsal skin [2]): showed the same pattern
- number of genes with decreased expression common among the minoxidil, maslinic acid and tieghemelin treatment groups (dorsal skin [1]): 316
- number of genes with decreased expression common between the minoxidil and tieghemelin treatment groups (dorsal skin [1]): Ninety-four
- number of genes with increased expression common among the minoxidil, maslinic acid and tieghemelin treatment groups (dorsal skin [1]): 342
- number of genes with increased expression common between the minoxidil and tieghemelin treatment groups (dorsal skin [1]): One-hundred-twenty-eight
- functions specifically enriched among skin-tissue genes with increased expression (TSEA) (dorsal skin [1]; functions not enriched in the minoxidil treatment group): the proliferation of keratinocytes and epithelial cells, the control of the MAPK cascade, the intercellular adhesion, and the activation of the cytokine receptor interaction
- expression level of Aepb1 (hair cycle-related genes): decreased
- expression level of KRT15 (hair cycle-related genes): decreased
- expression of NF-κB (hair cycle-related genes): decreased
- stage of the hair follicle from its shape (dorsal skin [3]; dorsal skin section): anagen (II)
- expression of K14 (dorsal skin [3]; [6]): highly expressed
- expression of VEGF (dorsal skin [3]; [6]): highly expressed
- expression of β-catenin (dorsal skin [3]; [6]): highly expressed
- Iqcb1 expression (Iqcb1): upregulated
- expression level of Iqcb1 compared with the minoxidil treatment group (Iqcb1): increased more

Compound: butyroside D
- proliferation of HFDPCs (HFDPCs; 2 μM): significantly promotes the proliferation
- proliferation of HFDPCs (HFDPCs; 5 μM): significantly promotes the proliferation
- proliferation of HFDPCs (HFDPCs; 10 μM): significantly promotes the proliferation
- effect of increasing the expression level of the ALPL gene compared with minoxidil positive control (HFDPC [4]): more than the effect of the treatment with 0.1 M minoxidil
- effect of increasing the expression level of the CTNNB1 gene compared with minoxidil positive control (HFDPC [4]): more than the effect of the treatment with 0.1 M minoxidil
- expression level of the FGF1 gene in the HFDPC (HFDPC [5]; 0.5 nM): significantly increased
- expression level of the ALPL gene in the HFDPC (HFDPC [5]; 5 nM): significantly increased
- expression level of the CTNNB1 gene in HFDPC (HFDPC [5]; 5 nM): significantly increased
- expression level of the FGF1 gene in the HFDPC (HFDPC [5]; 5 nM): significantly increased
- expression level of the ALPL gene in the HFDPC (HFDPC [5]; 10 nM): significantly increased
- expression level of the CTNNB1 gene in HFDPC (HFDPC [5]; 10 nM): significantly increased
- expression level of the FGF1 gene in the HFDPC (HFDPC [5]; 10 nM): significantly increased
- effect of increasing the expression level of the ALPL gene compared with minoxidil positive control (sentence in the FGF1 paragraph) (HFDPC [5]; vs 0.1 μM minoxidil): more than the effect of the treatment with 0.1 μM minoxidil

Compound: arganine D
- proliferation of HFDPCs (HFDPCs; 2 μM): significantly promotes the proliferation
- proliferation of HFDPCs (HFDPCs; 5 μM): significantly promotes the proliferation
- proliferation of HFDPCs (HFDPCs; 10 μM): significantly promotes the proliferation
